Assay results taken from patent US20110045100A1, “Antimalarial Quinolines and Methods of Use Thereof” (GEORGETOWN UNIVERSITY, priority 2008, published 2011).

Columns and labels:
[1] = test system: Dd2 (chloroquine resistant strain of P. falciparum); experiment: SYBR Green I antiplasmodial assay, strain Dd2; assay type: cell-based, Plasmodium falciparum; conditions: strain Dd2
Text: Bennett T. N.; Paguio, M.; Gligorijevic, B.; Seudieu, C.; Kosar, A. D.; Davidson, E.; Roepe, P. D. Novel, rapid, and inexpensive cell-based quantification of antimalarial drug efficacy. Antimicrob. Agents Chemother. 2004, 48, 1807-1810; Smilkstein, M.; Sriwilaijaroen, N.; Kelly, J. X.; Wilairat, P.; Riscoe, M. Simple and inexpensive fluorescence-based technique for high-throughput antimalarial drug screening. Antimicrob. Agents Chemother. 2004, 48, 1803-1806; and Johnson, J. D.; Dennull, R. A.; Gerena, L.; Lopez-Sanchez, M.; Roncal, N. E.; Waters, N.C. Assessment and continued validation of the malaria SYBR green I-based fluorescence assay for use in malaria drug screening. Antimicrob. Agents Chemother. 2007, 51, 1926-1933. […] Drake, N. L.; Creech, H. J.; Garman, J. A.; Haywood, S. T.; Peck, R. M.; van Hook, J. O.; Walton, E. Synthetic antimalrials. The preparation of certain 4-aminoquinolines. J. Am. Chem. Soc. […] Trans. R. Soc. Trop. Med. Hyg. […] J. Parasitol. 1983, 69, 97-105. The selectivity index provides a quantitative measure of the antimalarial activity against CQR strains relative to that against sensitive strains and thus indicates promising drug discovery leads. […] This can be combined with the introduction of a third basic amino function which should further favor accumulation of the drug within the acidic food vacuole of the parasite.
The antiplasmodial activity of these compounds was measured versus a CQS (HB3) and a CQR (Dd2) strain using a standardized, inexpensive assay based on SYBR Green I intercalation. Bennett T. N.; Paguio, M.; Gligorijevic, B.; Seudieu, C.; Kosar, A. D.; Davidson, E.; Roepe, P. D. Antimicrob. Agents Chemother. 2004, 48, 1807-1810; Smilkstein, M.; Sriwilaijaroen, N.; Kelly, J. X.; Wilairat, P.; Riscoe, M. Antimicrob. Agents Chemother. 2004, 48, 1803-1806; and Johnson, J. D.; Dennull, R. A.; Gerena, L.; Lopez-Sanchez, M.; Roncal, N. E.; Waters, N.C. Antimicrob. Agents Chemother. 2007, 51, 1926-1933. […] De, D.; Krogstad, F. M.; Cogswell, F. B.; Krogstad, D. J. Am. J. Trop. Med. Hyg. 1996, 55, 579-583. […] The basic tertiary amino function in the side chain is commonly believed to be crucial for the accumulation of the drug within the acidic food DV.
Drug activities were assessed and IC50 were quantified essentially as described previously. Delarue, S.; Girault, S.; Maes, L.; Debreu-Fontaine, M. A.; Labaeid, M.; Grellier, P.; Sergheraert, C. Synthesis and in vitro and in vivo antimalarial activity of new 4-anilinoquinolines. J. Med. Chem. 2001, 44, 2827-2833; and O'Neill, P. M.; Willock, D. J.; Hawley, S. R.; Bray, P. G.; Storr, R. C.; Ward, S. A.; Park, B. K. Synthesis, antimalarial activity, and molecular modeling of tebuquine analogues. J. Med. Chem. 1997, 40, 437-448. The aminoquinolines were diluted using complete media under sterile conditions and plated in a 96 well plate format. Sorbitol synchronized cultures were utilized with >95% of the parasites at the ring stage. Cultures were diluted to give a working stock of 0.5% parasitemia and 2% hematocrit (final hematocrit 1% & 0.5% Parasitemia). The plates were incubated for 72 h at 37° C. After 72 h, 50 μL of 10×SYBR green I dye was added to each well, and the plate was incubated for 1 h at 37° C. Fluorescence was measured at 530 nm (490 nm excitation) using a spectra geminiEM plate reader. Data analysis was performed using sigma plot 9.0 software after downloading data in Excel format.

monomeric heme = experiment: Heme affinity measurement, monomeric heme; assay type: binding; conditions: acidic 40% DMSO
Experimental: To test whether binding to Hz precursors is also altered for the 4S and 4O derivatives, binding constants were measured as previously described for both μ-oxo dimeric and monomeric heme (FIG. 25). […] J. Am. Chem. Soc. 1988, 110, 4391-4395; Egan, T. J.; Mavuso, W. W.; Ross, D. C.; Marques, H. M. Thermodynamic factors controlling the interaction of quinoline antimalarial drugs with ferriprotoporphyrin IX. J. Inorg. Biochem. 1997, 68, 137-145; and Egan, T. J.; Ncokazi, K. K. Effects of solvent composition and ionic strength on the interaction of quinoline antimalarials with ferriprotoporphyrin IX. J. Inorg. Biochem. 2004, 98, 144-152. Due to the instability of monomeric heme in aqueous solution, the affinity to monomer measured by conventional absorbance experiments can only be estimated using 40% DMSO in water as solvent. Egan, T. J.; Ncokazi, K. K. Effects of solvent composition and ionic strength on the interaction of quinoline antimalarials with ferriprotoporphyrin IX. J. Inorg. Biochem. 2004, 98, 144-152. At appropriately acidic solution pH (≦5.0) FPIX heme is primarily monomeric, whereas at pH 7, appreciable dimer is formed. As shown (FIG. 25), CQ and compounds 88, 93, and 98 all have poor affinity for monomeric heme in acidic 40% DMSO. To further test if CQ interacts with monomeric heme, T1 measurements of the CQ protons were made with samples containing 10 mM CQ and 2 mM hemin chloride in 40% DMSO at pH 5.0. Although the lines are broadened in this solution due to paramagnetic susceptibility, the measured T1's indicate only weak paramagnetic relaxation. For example, the measured T1 for CQ proton 1 in this sample is 0.70 s, whereas at pH 7.0 the T1 for the same proton is 0.039 s.
To measure affinity for monomeric heme, 1.2 mM stock solutions of hemin (sodium salt from Sigma-Aldrich) were prepared in DMSO and stored as […] aliquots. 4.8 μM working solutions were prepared in 40% DMSO/phosphate buffer (fresh stocks prepared daily). Stock solutions of CQ and CQ analogues (diphosphate or dihydrochloride salts) were prepared in 40% DMSO/phosphate buffer and used for the titration experiments (all drugs dilutions were prepared in the same buffer).
1.5 mL cuvettes containing freshly prepared samples of 4.8 μM heme were titrated with increasing concentrations (0-50 μM) of drug. Following each addition, the sample was mixed and heme absorbance then recorded at 402 nm. Control experiments were performed by titrating 4.8 μM heme with similar volumes of solvent and no drug present. […] The absorbance peak analysis was done using Microsoft excel and Ka were extracted from the ΔAbs402 plots via Scatchard analysis using Microsoft Excel and Sigma plot 9.0.1 software.

CCN(CC)CCCCOc1ccnc2cc(Cl)ccc12 [compound 93, O-(7-Chloro-4-quinolyl)-4-(N,N-diethylamino)butanol]
fold lower IC50 relative to 98 [1]: 4 fold
affinity for monomeric heme (monomeric heme): poor affinity
